From US12594270B2, “Schizophrenic disorder treatment using combination therapy” (Cambridge Cognition Limited, priority 2019, dated 2026)

Key:
[1] = test system: C57BL/6 mice; assay: MK801 induced abnormally persistent latent inhibition; assay type: in vivo; conditions: 4 tone-shock pairings to produce low LI
Experimental: C57BL/6 mice will be used to investigate latent inhibition (LI) conditioned emotional response cessation of drinking model in mice as described in, e.g., Bay-Richter, et al., Enhanced Latent Inhibition in Dopamine Receptor-Deficient Mice is Sex-Specific for the D1 but not D2 Receptor Subtype: Implications for Antipsychotic Drug Action, Int. J. Neuropsychopharmacol. […] On Day 1 to Day 6, animals will undergo lick training where mice will have access to water in a chamber for 15 minutes and the number of licks per animal will be recorded. […] One group will receive 20 presentations [determined from prior experiments to produce reduced LI in controls] of a 5 second 85 dB tone with a 15 second inter-stimulus interval (pre-exposed group, PE); a control group of non-pre-exposed (NPE) mice will be placed in a testing chamber with access to water withdrawn for an identical period of time but will not receive a tone pre-exposure. […] Number of licks for each animal will be recorded and time taken to complete 80-90 licks (A) and 90-100 licks (B) recorded. […] A suppression ratio (SR) will be calculated according to the formula A/(A+B) yielding a scale of […]. […]
In a sixth series of experiments, the ability of the combined Tropisetron and Varenicline treatment to reverse the MK801 induced abnormally persistent latent inhibition effect will be assessed. […]

[2] = cited from earlier work

| Structure (SMILES) | effect of MK801 on latent inhibition [1] | absorption from the gastrointestinal tract ([2]; background statement) | off-target gastrointestinal side effects ([2]; chronic administration, due to 5-HT3 receptor inhibitory activity) | cognitive effects in patients with schizophrenia ([2]; patients with schizophrenia, background statement) |
| --- | --- | --- | --- | --- |
| C[C@]12N[C@H](Cc3ccccc31)c1ccccc12 [MK801] | produce abnormally persistent latent inhibition |  |  |  |
| CN1[C@@H]2CC[C@H]1C[C@@H](OC(=O)c1c[nH]c3ccccc13)C2 [Tropisetron] |  | almost completely absorbed | a reduction in gut transit and constipation | some pro-cognitive effects |
